Test results published in PMC10641813 (Journal of Medicinal Chemistry, 2023).
Several values for one entry are separate records, joined by “and”; a condition that tells them apart may be missing. Identical values can stand only once. Like-named read-outs stand apart in the source and are kept apart here.

Legend:
[1] = tested on: MCF-7 cells; test: Inhibition of growth of MCF-7 cells; format: cell-based, human
Experimental: (§1) ; 11 and 15, NCI/ADR-RES and OVCAR-8 cells) to 4.8 (19, OVCAR-8 cells). […] . […] Cells were seeded in 96-well plates.

[2] = tested on: NCI/ADR-RES cells; test: Inhibition of growth of NCI/ADR-RES DOX-resistant cells; format: cell-based, human; details: for IC50: DOX-resistant cell line derived from OVCAR-8, 96 h
Experimental: as §1

[3] = tested on: OVCAR-8 cells; test: Inhibition of growth of OVCAR-8 cells; format: cell-based, human; details: ovarian tumor cell line 8, 96 h
Experimental: as §1

[4] = target: T1, hCA XII (Homo sapiens, UniProt O43570); test: Stopped flow CO2 hydrase assay, hCA XII; format: biochemical; details: stopped flow technique, mean from three assays
T1 construct: made in house

[5] = tested on: tubulin; test: Tubulin assembly (polymerization) assay; format: biochemical; details: at 20 μM
Experimental: The reaction mixtures contained 0.8 M monosodium glutamate (pH 6.6 with HCl in a 2 M stock solution), 10 μM tubulin, 4% (v/v) DMSO, and varying concentrations of compound. […] The extent of the reaction was measured.

[6] = target: T2, hCA IX (Homo sapiens, UniProt Q16790); test: Stopped flow CO2 hydrase assay, hCA IX; format: biochemical
T2 construct: made in house

[7] = tested on: tubulin; details: cited from earlier work
[8] = tested on: tubulin; details: tubulin assembly; read-out: Tubulin IC50 ± SD; cited from earlier work
[9] = target: T3, hCA I (Homo sapiens, UniProt P00915); test: Stopped flow CO2 hydrase assay, hCA I; format: biochemical; details: for fold reduction in the inhibition of hCA I: relative to 11 (sulfonamide at para position); for Ki: stopped flow technique, mean from three assays
T3 construct: made in house

[10] = target: T4, hCA II (Homo sapiens, UniProt P00918); test: Stopped flow CO2 hydrase assay, hCA II; format: biochemical; details: stopped flow technique, mean from three assays
T4 construct: made in house

[11] = tested on: SW620 cells; test: Inhibition of growth of SW620 cells (XTT); details: read-out: IC50 SW620; human colorectal carcinoma cells; combinations: each compound at its IC50 concentration
Experimental: (§3) In drug combination studies, each compound was used at the corresponding IC50 concentration.
(§4) Cells were grown in Dulbecco’s modified Eagle’s medium (D-MEM) supplemented with 10% fetal bovine serum (FBS) at 37 °C with 5% CO2. In all experiments, 300,000 cells were plated in 9 cm^2 dishes and exposed to test compound dissolved in DMSO (0.1% final concentration) at the indicated concentrations. […] Cells were kept at low passage, returning to the original frozen stocks every 3–4 months.

[12] = tested on: HCT116 cells; test: Inhibition of growth of HCT116 cells (MTT); details: read-out: IC50 HCT116; human colorectal carcinoma cells; combinations: each compound at its IC50 concentration
Experimental: as §3, §4

[13] = tested on: SW480 cells; test: Inhibition of growth of SW480 cells (XTT); details: read-out: IC50 SW480; human colorectal carcinoma cells; combinations: each compound at its IC50 concentration
Experimental: as §3, §4

[14] = tested on: HT29/DX cells; test: Viability of HT29/DX cells with DOX alone or coincubated with 15 (WST-1); format: cell-based, human; details: 5 μM DOX alone, 72 h
Experimental: (§2) Cells were seeded in 96-well plates.

[15] = Viability of MDCK cells with DOX alone or coincubated with 15 (WST-1); format: cell-based, canine; details: dog, MDCK cells (sensitive, parental); read-out: cell viability
Experimental: as §2

[16] = tested on: MDCK/P-gp cells; test: Viability of MDCK/P-gp cells with DOX alone or coincubated with 15 (WST-1); format: cell-based, canine; details: 5 μM DOX alone, 72 h
Experimental: as §2

[17] = tested on: NCI/ADR-RES cells; parameters: method as in PMID 22044164; details: DOX-resistant cell line; cited from earlier work
[18] = human nonmetastatic breast cancer epithelial cells
[19] = stopped flow technique, mean from three assays

T3 sequence (P00915 whole entry): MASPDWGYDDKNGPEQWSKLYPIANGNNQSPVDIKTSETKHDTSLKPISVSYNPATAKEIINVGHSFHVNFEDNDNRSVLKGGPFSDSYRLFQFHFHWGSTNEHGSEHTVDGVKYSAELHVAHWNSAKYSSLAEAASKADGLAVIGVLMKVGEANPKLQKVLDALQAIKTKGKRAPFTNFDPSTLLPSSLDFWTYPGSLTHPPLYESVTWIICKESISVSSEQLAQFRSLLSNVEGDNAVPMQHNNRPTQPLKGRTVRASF
T1 sequence (O43570 25-354): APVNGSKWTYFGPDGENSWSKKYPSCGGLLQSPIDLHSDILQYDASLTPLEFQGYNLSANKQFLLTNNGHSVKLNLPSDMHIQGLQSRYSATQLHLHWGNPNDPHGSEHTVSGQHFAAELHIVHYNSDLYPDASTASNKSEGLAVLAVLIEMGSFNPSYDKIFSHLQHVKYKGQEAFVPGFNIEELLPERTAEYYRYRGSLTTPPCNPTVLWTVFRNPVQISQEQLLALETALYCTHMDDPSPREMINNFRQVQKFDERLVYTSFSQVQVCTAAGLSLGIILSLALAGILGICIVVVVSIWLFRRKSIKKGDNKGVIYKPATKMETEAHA

For “4-(3-(3,4,5-trimethoxybenzoyl)-1H-pyrrol-1-yl)benzenesulfonamide [Compound 11]”, the IC50 [1, 18] was 3900 ± 80 nM, the IC50 [2] was 1900 nM and 2200 nM and the IC50 [3] was 1900 ± 70 nM. For the same compound, the Ki [4] was 11.5 nM and the “inhibition of tubulin assembly” value [5] was “did not inhibit tubulin assembly”.
“4-(3-Benzoyl-1H-indol-1-yl)benzenesulfonamide [Compound 18]” showed a Ki [6] of 31.6 nM and a Ki [4] of 52 nM.
For “4-(3-Benzoyl-1H-pyrrol-1-yl)benzenesulfonamide [Compound 10]”, the Ki [6, 19] was 66 nM and the Ki [4] was 47.1 nM.
Compound “4-(3-Benzoyl-4-phenyl-1H-pyrrol-1-yl)benzenesulfonamide [Compound 14]” has a Ki [6, 19] of 38.6 nM and a Ki [4] of 59.4 nM.
COc1ccc(/C=C\c2cc(OC)c(OC)c(OC)c2)cc1O [CSA4, combretastatin A-4, reference compound] gave an IC50 ([1]; Homo sapiens, MCF7, reference compound in the MCF-7 assay) of 15 nM.
In the case of COc1cc(C(=O)c2ccn(-c3ccccc3)c2)cc(OC)c1OC [Compound 2], the “inhibition of colchicine binding” value [7] is listed as 81% and the IC50 [8] is listed as 1500 nM.
In the case of COc1cc(C(=O)c2cn(-c3ccccc3)cc2-c2ccccc2)cc(OC)c1OC [Compound 3], the “inhibition of colchicine binding” value [7] is given as 66% and the IC50 [8] is given as 1100 nM.
For COc1cc(C(=O)c2ccn(-c3cccc(S(N)(=O)=O)c3)c2)cc(OC)c1OC [Compound 12, 3-(3-(3,4,5-Trimethoxybenzoyl)-1H-pyrrol-1-yl)benzenesulfonamide], the Ki [6, 19] was 34.7 nM, the EC50 ([2]; Homo sapiens, NCI/ADR-RES, DOX-resistant cell line) was 2100 to 2200 nM and the “fold reduction in the inhibition of hCA I” value [9] was 6.7 fold. The Ki [9] was 644 nM, the Ki [10] was 84.2 nM and the Ki [4] was 21.3 nM.
For COc1cc(C(=O)c2ccn(-c3ccccc3S(N)(=O)=O)c2)cc(OC)c1OC [Compound 13, 2-(3-(3,4,5-Trimethoxybenzoyl)-1H-pyrrol-1-yl)benzenesulfonamide], the Ki [6, 19] was 229 nM, the “fold reduction in the inhibition of hCA I” value [9] was 61.0 fold and the Ki [9] was 5840 nM. It also gave a Ki [10] of 888 nM and a Ki [4] of 425 nM.
COc1cc(C(=O)c2cn(-c3cccc(S(N)(=O)=O)c3)cc2-c2ccccc2)cc(OC)c1OC [Compound 16, 3-(3-Phenyl-4-(3,4,5-trimethoxybenzoyl)-1H-pyrrol-1-yl)benzenesulfonamide] showed a Ki [6, 19] of 39.1 nM, a Ki [9] of 1030 nM and a Ki [10] of 186 nM. The Ki [4] was 28.9 nM.
Compound COc1cc(C(=O)c2cn(-c3ccccc3S(N)(=O)=O)cc2-c2ccccc2)cc(OC)c1OC [Compound 17, 2-(3-Phenyl-4-(3,4,5-trimethoxybenzoyl)-1H-pyrrol-1-yl)benzenesulfonamide] has a Ki [6, 19] of 8860 nM, a Ki [9] greater than 10000 nM and a Ki [10] greater than 10000 nM. The Ki [4] was 1000 nM.
In the case of COc1cc(C(=O)c2cn(-c3ccc(S(N)(=O)=O)cc3)c3ccccc23)cc(OC)c1OC [Compound 19, 4-(3-(3,4,5-Trimethoxybenzoyl)-1H-indol-1-yl)benzenesulfonamide], the Ki [6] is reported as 7.3 nM, the IC50 [1, 18] is reported as 3600 ± 1000 nM and the IC50 [2] is reported as 2100 ± 200 nM. For the same compound, the Ki [9] was 446 nM, the IC50 [11] was 45400 ± 1700 nM and the Ki [10] was 67.8 nM. The IC50 [12] was 14900 ± 1300 nM, the IC50 [3] was 4800 ± 300 nM and the “inhibition of tubulin assembly” value [5] was “partial inhibition”. The IC50 [13] was 37400 ± 1400 nM.
COc1cc(C(=O)c2cn(-c3cccc(S(N)(=O)=O)c3)c3ccccc23)cc(OC)c1OC [Compound 20, 3-(3-(3,4,5-Trimethoxybenzoyl)-1H-indol-1-yl)benzenesulfonamide] gave a Ki [6, 19] of 69 nM, a Ki [9] of 943 nM and a Ki [10] of 229 nM. For the same compound, the Ki [4] was 58.1 nM.
In the case of COc1cc(C(=O)c2cn(-c3ccccc3S(N)(=O)=O)c3ccccc23)cc(OC)c1OC [Compound 21, 2-(3-(3,4,5-Trimethoxybenzoyl)-1H-indol-1-yl)benzenesulfonamide], the Ki [6, 19] is reported as 7750 nM, the Ki [9] is reported as greater than 10000 nM and the Ki [10] is reported as greater than 10000 nM. The Ki [4] was 1190 nM.
For COc1cccc2c1C(=O)c1c(O)c3c(c(O)c1C2=O)C[C@@](O)(C(=O)CO)C[C@@H]3O[C@H]1C[C@H](N)[C@H](O)[C@H](C)O1 [DOX, doxorubicin, reference compound], the cell viability [14] was “did not affect the viability”, the viability at 72 h, 5 μM [15] was less than 30% and the cell viability [16] was “did not affect the viability”.
For CCC1=C[C@@H]2CN(C1)Cc1c([nH]c3ccccc13)[C@@](C(=O)OC)(c1cc3c(cc1OC)N(C)[C@H]1[C@@](O)(C(=O)OC)[C@H](OC(C)=O)[C@]4(CC)C=CCN5CC[C@]31[C@@H]54)C2 [vinorelbine], the IC50 [17] is listed as 5000 ± 1000 nM.
